Measured values reported in PMC11679793, “Structure-Activity Relationship Study of Majusculamide D: Overcoming Metabolic Instability and Severe Toxicity with a Fluoro Analogue” (Marine Drugs, 2024).
Where two headings read alike, the source gives them in different places.

Columns and labels:
PANC-1 xenograft tumor = test system: PANC-1 xenograft tumor
Procedure: Furthermore, a xenografted murine subcutaneous tumor model was employed to evaluate the effects of majusculamide D and the optimized analogues 1c and 1n (Figure 1B). PANC1-bearing BALB/c nude mice were separated randomly, with a total of six mice in each group. Gemcitabine was chosen as the positive drug; the mice were then administered intravenous doses of 1c (5 mg/kg), 1n (5 mg/kg), 1a (5 mg/kg), and gemcitabine (20 mg/kg) every other day for 24 days.
A total of 4 × 10^6 PANC-1 cells suspended in 100 μL PBS were subcutaneously injected into the right shoulder region of BALB/c nude mice. When the tumor volume reached approximately 200 mm^3, the mice were euthanized, and the tumor tissues were harvested and designated as F1 generation. Tumor tissues were then cut into small cubes measuring approximately 3 × 3 × 3 mm, which were implanted into new BALB/c mice to propagate the tumors. This procedure was repeated to obtain the F2 generation of tumors. Finally, mice bearing F3 generation transplant tumors were used for drug treatment experiments. When the tumor volume reached approximately 80–100 mm^3, the mice were randomly divided into five groups (n = 6): control group, 5 mg/kg compound 1a group, 5 mg/kg compound 1c group, 5 mg/kg compound 1n group, and 20 mg/kg gemcitabine group. The compounds 1a, 1c, and 1n were dissolved in DMSO and then diluted with 0.9% physiological saline to achieve a final concentration of 0.5 mg/mL as the dosing concentration. Gemcitabine was dissolved directly in 0.9% saline to achieve a final concentration of 2 mg/mL as the dosing concentration. The compounds were administered intravenously every two days, alternating between the left and right tail veins to minimize vein damage. Injections were performed using ultra-fine syringes (30G needles) to reduce stress and ensure consistent delivery. The body weight and tumor volume of the mice were measured every four days. On day 24, the mice were euthanized, and the tumor weights were recorded. Tumor volume (V) was calculated using the formula: V = (ab^2)/2, with “a” representing the long diameter of the tumor and “b” representing the short diameter of the tumor. […] Tumor weight was used to calculate the tumor inhibition rate (Figure 1G).

pancreatic cancer cells = experiment: EdU assay; format: cell-based; details: 48 h treatment, concentration-dependent, vs control
Source text: The EdU ([…]) assay is a well-established method that assesses cell proliferation activity by detecting DNA synthesis. The results of EdU assays indicated […]
concentration-dependent manner. […]
the DNA synthesis of pancreatic cancer cells, thereby inhibiting the proliferation of pancreatic cancer cells, which was consistent with the results of clone formation assays. […]
Snail and TCF8/ZEB1 both […]
are transcription factors that can inhibit the expression of E-cadherin and promote the EMT process. Vimentin is a marker protein of mesenchymal cells, and its expression increases during EMT, further contribute to the process of metastasis by supporting the structural changes needed for cell migration and invasion.
We examined the effects of compound 1a on above key proteins involved in tumor progression pathways employing Western blot analysis in PANC-1 cells and MIA PaCa-2 […]
1a might inhibit cancer cell invasion and migration by enhancing cell-cell adhesion and barrier function. Conversely, the expression levels of β-catenin, Fibronectin, Snail, […]
Cells were resuspended at a concentration of 300 cells/mL, and 2 mL of the suspension was added to each well of a 6-well plate. […] The colonies were imaged under a microscope and quantified using ImageJ. […]

PANC-1 cells = experiment: MTT cell activity assay (inhibitory activity against PANC-1 cells); format: cell-based
Procedure: A total of 3000 PANC-1 cells were resuspended in 200 μL of culture medium and seeded into 96-well plates. After 24 h, the cells were treated with the compound and incubated for an additional 72 h. Following the incubation, 20 μL of 5 mg/mL MTT solution (Solarbio, China) was added to each well in the dark, and the cells were incubated for another 4 h. After incubation, the culture medium was discarded, and the wells were washed with PBS to remove any residual medium. Then, 200 μL of DMSO was added to each well to fully dissolve the formazan crystals, and the solution was mixed thoroughly. The absorbance was measured at 492 nm/570 nm, and the data were analyzed using GraphPad Prism.

`CCCCC(C)CC(C)C(=O)N(C)C(Cc1ccc(OC)cc1)C(=O)NC(C(=O)N(C)C(C(=O)N1CC(O)CC1C(=O)N1C(=O)C=CC1C)C(C)C)C(C)OC(C)=O` (centres unmarked) [Compound 1a, Majusculamide D] was tested, and the “mortality rate among the mice” value (PANC-1 xenograft tumor; 5 mg/kg i.v. every other day, 24 days, n = 6) was 50%, the “mice dead in treated group” value (PANC-1 xenograft tumor; 5 mg/kg i.v., xenografted mouse model, six mice per group) was 3 mice and the “tumor inhibition rate (%)” value (PANC-1 xenograft tumor; calculated from tumor weight, day 24, 1a, 1c, 1n 5 mg/kg, gemcitabine 20 mg/kg i.v.) was 64.8%. For the same compound, the tumor weight (PANC-1 xenograft tumor; day 24, i.v. every other day, 1a, 1n 5 mg/kg, gemcitabine 20 mg/kg, mean ± SD) was 0.393 ± 0.049 g, the tumor volume (PANC-1 xenograft tumor; i.v. every other day for 24 days, 1a, 1n 5 mg/kg, gemcitabine 20 mg/kg, mean ± SD, n = 6) was 353.0 ± 66.7 mm^3 and the “cell proliferation ability (EdU, DNA synthesis)” value (pancreatic cancer cells) was “decreased in comparison to the control group”. It also gave an IC50 (PANC-1 cells; Homo sapiens, PANC-1, 72 h, read-out: IC50 (nM), inhibitory activity against PANC-1 cells (Table 2), PANC-1 cells, 72 h incubation, mean ± SD, n = 3, Table 2 series) of 1.99 ± 0.68 nM and an IC50 (PANC-1 cells; read-out: IC50 (nM), inhibitory activity against PANC-1 cells (Table 1), PANC-1 cells, 72 h incubation, mean ± SD, n = 3) of 1.88 ± 0.82 nM.
